Drawing on the METLIN SMRT retention time set (Domingo-Almenara et al. 2019), this text covers RP-LC retention time for 78 compounds.

The nature of the series: gradient 5% acetonitrile 3 min, to 50% in 2 min, to 85% in 15 min, held 3 min, 100 µL/min. Particulars: column: Zorbax Extend-C18 2.1 x 50 mm; eluents: water / acetonitrile, 0.1% formic acid. The method, boiled down:
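Retention time was recorded from adduct peaks, which were picked computationally and each inspected manually. Pure standards ran in mixtures of ~100 molecules on HPLC coupled to a quadrupole time-of-flight mass spectrometer, in positive and negative ionization mode, through a Zorbax Extend-C18 column (2.1 × 50 mm, 1.8 μm) at 100 μL/min. Eluents were water and acetonitrile, each with 0.1% formic acid.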
For the compound `CC1CCN(C(=O)C2CCN(S(=O)(=O)c3ccc(-c4noc(C5CC5)n4)cc3)CC2)CC1`, the RP-LC retention time came out at 1040 s.
The same measure for `COc1ccc(CNC2=NCCNC23CCN(S(=O)(=O)c2ccc(C(C)(C)C)cc2)CC3)cc1`: 844 s.
In turn, `CCc1cccc(NC(=O)C2CCN(S(=O)(=O)c3ccc4c(c3)NC(=O)C(C)O4)CC2)c1` (stereo not drawn) gave an RP-LC retention time of 838 s.
The same measure for `CCc1ccc(Nc2cc(C(=O)N3CCCCC3)nc3cc(OC)c(OC)cc23)cc1`: 766 s; for `Cc1cc(F)ccc1NC(=O)c1c(O)c2cccnc2n(-c2cccc(F)c2)c1=O`: 1250 s.
The result for `Fc1ccc(C(OCCN2CCN(C/C=C/c3ccccc3)CC2)c2ccc(F)cc2)cc1` reads 916 s; that for `CCNC(=O)C1CCN(Cc2cc3ccccc3n2Cc2ccc(C)cc2)CC1`, 724 s.
The result for `COc1ccc(S(=O)(=O)N2CCC(CN3CCC(C)CC3)CC2)cc1` reads 655 s.
For the compound `Cn1c(=O)sc2cc(S(=O)(=O)N3CCC(C(=O)NCc4ccco4)CC3)ccc21`, the RP-LC retention time was 739 s.
The same measure for `Cc1ccccc1-c1noc(Cc2nnc(-c3cccc(Br)c3)o2)n1`: 853 s; for `CCn1c(CCNC(=O)c2ccc(Cl)cc2)nc2cccnc21`: 653 s; for `CC(C)n1c(=O)oc2cc(-c3noc(-c4ccccc4F)n3)ccc21`: 1160 s.
The result for `O=S(=O)(c1cccs1)N1CCN(c2cnn3cnnc3c2)CC1` reads 652 s.
Turning to `COc1ccccc1NC(=O)c1c(O)c2cccnc2n(-c2ccc(F)cc2)c1=O`, the RP-LC retention time came to 864 s.
`COc1ccc2[nH]cc(CCN3CC(C(=O)Nc4ccc(Cl)cc4)CC3=O)c2c1` (stereo not drawn) yielded an RP-LC retention time of 829 s.
The result for `CCOc1ccc(NC(=O)N2CCCC2c2cc(C)on2)cc1` (stereo not drawn) reads 854 s; that for `COC(=O)c1cc(C(=O)OC)cc(-n2ccc3nc(C)c(C(=O)OC)cc3c2=O)c1`, 844 s; that for `CCCc1ccc(OCC(O)CN2CCN(C)CC2)cc1` (stereo not drawn), 551 s.
The same measure for `CCNc1cc(N2CCC(CCC(=O)NCc3cccc(Cl)c3)CC2)ncn1`: 678 s; for `C=CCNC(=O)Nc1nc(CSC)cs1`: 653 s; for `COCCNC(=O)C1CCN(S(=O)(=O)c2ccc3c(c2)NC(=O)CO3)CC1`: 862 s.
The result for `Cc1ccc(N2CCN(c3nccn4c(=O)n(CC(=O)Nc5ccc(C)c(Cl)c5)nc34)CC2)cc1` reads 1060 s; that for `O=C1NCCCCCCN(C(=O)c2cccs2)[C@H]2CCC[C@@H]12`, 745 s; that for `CC(C)NC(=O)CN1C(=O)COc2ccc(C(=O)N3CCCCCC3)cc21`, 680 s.
`O=C(Nc1nc(-c2cccnc2)cs1)C1CN(c2nc3ccccc3s2)C1` returned an RP-LC retention time of 592 s.
The result for `O=C(Cn1nc2c3sc(N4CCCCC4)nc3ncn2c1=O)Nc1ccc(Cl)cc1F` reads 868 s; that for `CCNC(=O)C1CCN(c2nc3ncn(CC(=O)Nc4ccc(C)cc4C)c(=O)c3s2)CC1`, 675 s; that for `CCc1nc2cc(-c3noc(C4CC(=O)N(c5ccc(C)cc5)C4)n3)ccc2o1` (stereo not drawn), 987 s.
The result for `N#Cc1cccc(C(=O)NC2(c3nc(-c4ccncc4)no3)CCCCC2)c1` reads 875 s; that for `Cc1nn(C(C)C(=O)NCCCN2CCOCC2)c(=O)c2nn(-c3ccccc3)c(C)c12` (stereo not drawn), 615 s.
The same measure for `Cc1ccc2c(Nc3ccc(Cl)c(F)c3)c(C(=O)N3CCSCC3)cnc2n1`: 651 s; for `Cc1c(-c2noc(-c3ccc4cc[nH]c4c3)n2)nnn1Cc1ccccc1`: 1010 s; for `Cc1cnn(Cc2nc(-c3ccc(NC(=O)COc4ccccc4)cc3)oc2C)c1`: 869 s.
Compound `FC(F)(F)c1ccc(Nc2nc3ccc(Oc4ccnc(-c5ncc(C(F)(F)F)[nH]5)c4)cc3[nH]2)cc1` displayed an RP-LC retention time of 844 s.
The same measure for `O=C(NCCC1=CCCCC1)c1nc(Nc2ccc(F)cc2)c2ccccc2n1`: 962 s; for `CCN1C(=O)c2cc(S(=O)(=O)Nc3ccc(C)cc3)ccc2Oc2cccnc21`: 970 s.
The result for `CC(C)NC(=O)c1ccc(OCC2CCN(C(=O)c3ccc(F)cc3F)CC2)cc1` reads 854 s; that for `CCC(C)NC(=O)c1ccc2c(c1)CC(=O)N2CC` (stereo not drawn), 691 s; that for `Cc1ccc(-c2nc3ccccn3c2Nc2ccccc2C)cc1`, 731 s.
The result for `CC(C)c1nnc(-c2ccc(S(=O)(=O)N3CCN(C(C)C)CC3)o2)o1` reads 608 s; that for `Cc1ccnc(NC(=O)C2CCN(S(=O)(=O)c3ccc(-c4noc(C5CC5)n4)cc3)CC2)c1`, 794 s; that for `Cc1cc(C)cc(NC(=O)Cn2c(=O)n(-c3cccc(C)c3)c(=O)c3c2cc(C)n3C)c1`, 882 s.
With `COCCN1C(=O)[C@H]2CN(Cc3ccccc3OC(F)(F)F)C[C@H]2C1=O`, the RP-LC retention time is 743 s.
The same measure for `COc1ccccc1CNC(=O)C1CCCN(S(=O)(=O)c2cc(-c3noc(C)n3)cs2)C1` (stereo not drawn): 892 s.
Consider `Cc1ccc(N2CCN(Cc3nc(-c4ccc(N5CCCCC5)nc4)no3)CC2)cc1`, for which the RP-LC retention time stood at 901 s.
The result for `CC(C)c1ccc(NC(=O)C2CCN(S(=O)(=O)c3cn(C)cn3)CC2)cc1` reads 797 s.
The same measure for `CCc1cc(C(=O)N2CCCC2c2cccc(F)c2)no1` (stereo not drawn): 944 s; for `O=C1CCCN1c1ccc(Cn2nc3c(-c4nc(-c5ccccc5)no4)cccn3c2=O)cc1`: 839 s; for `CCNC(=O)N1CCC(c2noc(-c3ccncc3)n2)C1` (stereo not drawn): 616 s.
Take `O=C1CCN(C(=O)COc2ccc(Cl)cc2)c2ccccc2N1`: the RP-LC retention time amounted to 691 s.
The same measure for `CCOc1ccc(C(C)NC(=O)c2cn3nc(OCC)ccc3n2)cc1` (stereo not drawn): 935 s; for `NC(=O)c1ccsc1NC(=O)c1ccccc1[N+](=O)[O-]`: 669 s; for `CCC1Oc2ccc(S(=O)(=O)N3CCC(C(=O)Nc4ccc(F)c(Cl)c4)CC3)cc2NC1=O` (stereo not drawn): 969 s.
The result for `CCC(=O)N1CCc2cc(N3CC(C(=O)NCc4cccc(Cl)c4)CC3=O)ccc21` (stereo not drawn) reads 776 s.
The result for `O=C(NCCC1=CCCCC1)C1CCCN(C(=O)c2cc(-c3ccccn3)n[nH]2)C1` (stereo not drawn) reads 723 s; that for `Cc1ccc(S(=O)(=O)N2CCCN(c3ccc(=O)n(-c4ccccc4)n3)CC2)c(C)c1`, 916 s; that for `CC(C)c1cccc(NS(=O)(=O)c2cc3n(c2)CCCNC3=O)c1`, 723 s.
As for `COc1ccc(S(=O)(=O)N2CC=C(c3cn(C)c4ncccc34)CC2)cc1Cl`, the RP-LC retention time is 1010 s.
The result for `CCOC(=O)c1ccc(NC(=O)CN2N=NC3C(=O)N(c4ccc(F)cc4)C(=O)C32)cc1` (stereo not drawn) reads 812 s.
The same measure for `Cc1ccc(S(=O)(=O)N2C[C@@H](F)C[C@H]2C(=O)N2CCCCC2)cc1Cl`: 826 s; for `Cn1cccc1Cc1nnc(SCC(=O)NO)n1Cc1ccccc1`: 621 s.
With `O=C1[C@H]2CN(Cc3ccc(F)c(Cl)c3)C[C@H]2C(=O)N1Cc1ccc2c(c1)OCO2`, the RP-LC retention time worked out at 853 s.
The same measure for `O=C(NC1(c2nc(-c3ccccc3)no2)CCCCC1)c1ccc(C(F)(F)F)cc1`: 1250 s; for `CC(C)c1nc2cc3c(cc2n1CC(=O)Nc1ccc2c(c1)OCCO2)OCCO3`: 654 s.
The same measure for `CCn1cc(C)c(C(=O)O)c1CC(=O)NCc1ccc2c(c1)OCO2`: 734 s; for `CCC(=O)NCc1nc2c(n1C)CN(C(=O)c1cccc(Br)c1)CC2`: 591 s; for `Cn1cccc1C(=O)C(=O)N1CCN(Cc2ccc3c(c2)OCO3)CC1`: 596 s.
The result for `CCOc1ccccc1NC(=O)c1sc(N2CCCC2=O)nc1CC` reads 1020 s; that for `CCNC(=O)C1CCCN(c2nc3ncn(CC(=O)Nc4cc(C)cc(C)c4)c(=O)c3s2)C1` (stereo not drawn), 716 s.
The compound `COc1ccccc1N1CCN(CCNC(=O)NCc2cccs2)CC1` returned an RP-LC retention time of 586 s.
The result for `Cc1nc2cc(-c3noc(-c4cc(Cl)ccc4Cl)n3)ccc2o1` reads 1290 s; that for `Cc1cc(C)c(C)c(S(=O)(=O)NCC(=O)N2CCN(c3ccccc3)CC2)c1C`, 966 s; that for `Cc1nc(C(=O)NC2CCCCC2)c(C)o1`, 767 s.
The same measure for `Cc1sc(NC(=O)c2ccccc2Br)nc1-c1ccc2c(c1)NC(=O)C(C)O2` (stereo not drawn): 943 s; for `CC(C)CCN(Cc1ccco1)C(=O)Cn1nc2n(c1=O)CCC(N)CC2` (stereo not drawn): 633 s.
For the compound `CC(C)Cn1c(=O)c(N2CCN(S(=O)(=O)Cc3ccccc3)CC2)nc2ccncc21`, the RP-LC retention time was 740 s.
The result for `COc1ccc2nc(C(=O)NCc3cccc(F)c3)cn2n1` reads 778 s; that for `CC1=NN(c2cccc(C(=O)O)c2)C(=O)/C1=C\c1ccc(-c2ccc(Cl)c(C(=O)O)c2)o1`, 1050 s.
